Experimental data as given in ChEMBL document CHEMBL1681651, “A broad spectrum anticancer nucleoside with selective toxicity against human colon cells in vitro” (2011).

What was measured:
Type in all cases: functional
[1] = test system: SF-295; test: Growth inhibition of human SF295 cells assessed as cell growth at 10 uM after 48 hrs by SRB assay; conditions: SF-295, 48 h, read-out: Activity
[2] = test system: MOLT-4; test: Growth inhibition of human MOLT4 cells assessed as cell growth at 1 uM after 48 hrs by SRB assay; conditions: MOLT-4, 48 h, read-out: Activity
[3] = test system: HL-60(TB); test: Growth inhibition of human HL-60(TB) cells assessed as cell growth at 1 mM after 48 hrs by SRB assay; conditions: HL-60, 48 h, read-out: Activity
[4] = test system: PC-3; test: Growth inhibition of human PC3 cells assessed as cell growth at 1 uM after 48 hrs by SRB assay; conditions: PC-3, 48 h, read-out: Activity
[5] = test system: SW-620; test: Growth inhibition of human SW620 cells assessed as cell growth at 1 uM after 48 hrs by SRB assay; conditions: SW-620, 48 h, read-out: Activity
[6] = test system: PC-3; test: Growth inhibition of human PC3 cells assessed as cell growth at 100 uM after 48 hrs by SRB assay; conditions: PC-3, 48 h, read-out: Activity
[7] = test system: SK-MEL-28; test: Growth inhibition of human SK-MEL-28 cells assessed as cell growth at 100 uM after 48 hrs by SRB assay; conditions: SK-MEL-28, 48 h, read-out: Activity
[8] = test system: MDA-MB-231; test: Growth inhibition of human MDA-MB-231 cells assessed as cell growth at 0.1 uM after 48 hrs by SRB assay; conditions: MDA-MB-231, 48 h, read-out: Activity
[9] = test system: MCF7; test: Growth inhibition of human MCF7 cells assessed as cell growth at 1 mM after 48 hrs by SRB assay; conditions: Homo sapiens, MCF7, 48 h; read-out: Activity
[10] = test system: T47D; test: Growth inhibition of human T47D cells assessed as cell growth at 1 mM after 48 hrs by SRB assay; conditions: read-out: Activity
[11] = Growth inhibition of human Hs 578T cells assessed as cell growth at 1 mM after 48 hrs by SRB assay; conditions: read-out: Activity
[12] = test system: COLO 205; test: Growth inhibition of human COLO205 cells assessed as cell growth at 100 uM after 48 hrs by SRB assay; conditions: COLO 205, 48 h, read-out: Activity
[13] = test system: RXF 393; test: Growth inhibition of human RXF393 cells assessed as cell growth at 1 mM after 48 hrs by SRB assay; conditions: RXF 393, 48 h, read-out: Activity
[14] = test system: SK-MEL-28; test: Growth inhibition of human SK-MEL-28 cells assessed as cell growth at 1 mM after 48 hrs by SRB assay; conditions: SK-MEL-28, 48 h, read-out: Activity
[15] = test system: SK-MEL-28; test: Growth inhibition of human SK-MEL-28 cells assessed as cell growth at 1 uM after 48 hrs by SRB assay; conditions: SK-MEL-28, 48 h, read-out: Activity
[16] = test system: K562; test: Growth inhibition of human K562 cells assessed as cell growth at 100 uM after 48 hrs by SRB assay; conditions: K562, 48 h, read-out: Activity
[17] = test system: SR; test: Growth inhibition of human SR cells assessed as cell growth at 1 uM after 48 hrs by SRB assay; conditions: read-out: Activity
[18] = test system: HL-60(TB); test: Growth inhibition of human HL-60(TB) cells assessed as cell growth at 0.1 uM after 48 hrs by SRB assay; conditions: HL-60, 48 h, read-out: Activity
[19] = test system: SR; test: Growth inhibition of human SR cells assessed as cell growth at 0.1 uM after 48 hrs by SRB assay; conditions: read-out: Activity
[20] = test system: SR; test: Growth inhibition of human SR cells assessed as cell growth at 1 mM after 48 hrs by SRB assay; conditions: read-out: Activity
[21] = test system: SW-620; test: Growth inhibition of human SW620 cells assessed as cell growth at 1 mM after 48 hrs by SRB assay; conditions: SW-620, 48 h, read-out: Activity
[22] = test system: SK-MEL-28; test: Growth inhibition of human SK-MEL-28 cells assessed as cell growth at 0.1 uM after 48 hrs by SRB assay; conditions: SK-MEL-28, 48 h, read-out: Activity
[23] = test system: NCI/ADR-RES; test: Growth inhibition of human NCI/ADR-RES cells assessed as cell growth at 1 mM after 48 hrs by SRB assay; conditions: read-out: Activity
[24] = test system: MCF7; test: Growth inhibition of human MCF7 cells assessed as cell growth at 1 uM after 48 hrs by SRB assay; conditions: MCF7, 48 h, read-out: Activity
[25] = test system: K562; test: Growth inhibition of human K562 cells assessed as cell growth at 1 mM after 48 hrs by SRB assay; conditions: K562, 48 h, read-out: Activity
[26] = test system: U-251; test: Growth inhibition of human U251 cells assessed as cell growth at 1 mM after 48 hrs by SRB assay; conditions: U-251, 48 h, read-out: Activity
[27] = test system: SF-295; test: Growth inhibition of human SF295 cells after 48 hrs by […] growth inhibition assay; conditions: SF-295, 48 h
[28] = test system: MDA-MB-231; test: Growth inhibition of human MDA-MB-231 cells after 48 hrs by […] growth inhibition assay; conditions: MDA-MB-231, 48 h
[29] = test system: HL-60(TB); test: Growth inhibition of human HL-60(TB) cells assessed as cell growth at 1 uM after 48 hrs by SRB assay; conditions: HL-60, 48 h, read-out: Activity
[30] = test system: T47D; test: Growth inhibition of human T47D cells assessed as cell growth at 100 uM after 48 hrs by SRB assay; conditions: read-out: Activity
[31] = test system: ACHN; test: Growth inhibition of human ACHN cells assessed as cell growth at 1 mM after 48 hrs by SRB assay; conditions: read-out: Activity
[32] = test system: SR; test: Growth inhibition of human SR cells after 48 hrs by SRB assay
[33] = test system: K562; test: Growth inhibition of human K562 cells assessed as cell growth at 1 uM after 48 hrs by SRB assay; conditions: K562, 48 h, read-out: Activity
[34] = test system: SW-620; test: Growth inhibition of human SW620 cells assessed as cell growth at 0.1 uM after 48 hrs by SRB assay; conditions: SW-620, 48 h, read-out: Activity
[35] = test system: PC-3; test: Growth inhibition of human PC3 cells assessed as cell growth at 1 mM after 48 hrs by SRB assay; conditions: PC-3, 48 h, read-out: Activity
[36] = Growth inhibition of human Hs 578T cells assessed as cell growth at 1 uM after 48 hrs by SRB assay; conditions: read-out: Activity
[37] = test system: K562; test: Growth inhibition of human K562 cells assessed as cell growth at 0.1 uM after 48 hrs by SRB assay; conditions: K562, 48 h, read-out: Activity
[38] = test system: HL-60(TB); test: Growth inhibition of human HL-60(TB) cells assessed as cell growth at 100 uM after 48 hrs by SRB assay; conditions: HL-60, 48 h, read-out: Activity
[39] = test system: HCT-116; test: Growth inhibition of human HCT116 cells assessed as cell growth at 100 uM after 48 hrs by SRB assay; conditions: HCT-116, 48 h, read-out: Activity
[40] = test system: MOLT-4; test: Growth inhibition of human MOLT4 cells assessed as cell growth at 100 uM after 48 hrs by SRB assay; conditions: MOLT-4, 48 h, read-out: Activity
[41] = read-out: LC50 (the source's name)
[42] = read-out: pLC50 (the source's name) (converted)

SMILES: CCOC(=O)C[C@H]1[C@@H](O[Si](C)(C)C(C)(C)C)[C@H](n2cnc3c(NC(=O)Nc4ccccc4)ncnc32)O[C@@H]1CNC(=O)NC
- growth at 10 µM [1]: 88%
- growth at 1 µM [2]: 84%
- growth at 1000 µM [3]: 22%
- growth at 1 µM [4]: 126%
- growth at 1 µM [5]: 94%
- growth at 100 µM [6]: -47%
- growth at 100 µM [7]: 40%
- growth at 0.1 µM [8]: 101%
- growth at 1000 µM [9]: -8%
- growth at 1000 µM [10]: 13%
- growth at 1000 µM [11]: -7%
- growth at 100 µM [12]: 20%
- growth at 1000 µM [13]: -59%
- growth at 1000 µM [14]: -91%
- growth at 1 µM [15]: 106%
- growth at 100 µM [16]: 19%
- growth at 1 µM [17]: 70%
- growth at 0.1 µM [18]: 85%
- growth at 0.1 µM [19]: 82%
- growth at 1000 µM [20]: -34%
- growth at 1000 µM [21]: -33%
- growth at 0.1 µM [22]: 104%
- growth at 1000 µM [23]: 59%
- growth at 1 µM [24]: 91%
- growth at 1000 µM [25]: -17%
- growth at 1000 µM [26]: -61%
- GI50 ([27]; read-out: GI50): 5.73 µM
- LC50 ([27]; read-out: LC50): > 100 µM
- TGI ([27]; read-out: TGI): > 100 µM
- GI50 ([27]; read-out: pGI50 (converted)): 5.75 µM
- LC50 ([27]; read-out: pLC50 (converted)): > 100 µM
- TGI ([27]; read-out: pTGI (converted)): > 100 µM
- GI50 ([28]; read-out: GI50): 3.96 µM
- CC50 [28, 41]: > 100 µM
- TGI ([28]; read-out: TGI): 41.3 µM
- GI50 ([28]; read-out: pGI50 (converted)): 3.98 µM
- CC50 [28, 42]: > 100 µM
- TGI ([28]; read-out: pTGI (converted)): 41.7 µM
- growth at 1 µM [29]: 110%
- growth at 100 µM [30]: 16%
- growth at 1000 µM [31]: 35%
- GI50 ([32]; read-out: GI50): 2230 nM
- CC50 [32, 41]: > 100 µM
- TGI ([32]; read-out: TGI): 7.07 µM
- GI50 ([32]; read-out: pGI50 (converted)): 2240 nM
- CC50 [32, 42]: > 100 µM
- TGI ([32]; read-out: pTGI (converted)): 7.08 µM
- growth at 1 µM [33]: 93%
- growth at 0.1 µM [34]: 97%
- growth at 1000 µM [35]: -77%
- growth at 1 µM [36]: 95%
- growth at 0.1 µM [37]: 96%
- growth at 100 µM [38]: -5%
- growth at 100 µM [39]: 23%
- growth at 100 µM [40]: 8%

SMILES: CNC(=O)NC[C@H]1O[C@@H](n2cnc3c(NC(=O)Nc4ccccc4)ncnc32)[C@H](O[Si](C)(C)C(C)(C)C)[C@@H]1CC(=O)N(C)OC
- growth at 10 µM [1]: 98%
- growth at 1 µM [2]: 90%
- growth at 1000 µM [3]: -58%
- growth at 1 µM [5]: 102%
- growth at 100 µM [7]: 44%
- growth at 0.1 µM [8]: 97%
- growth at 1000 µM [10]: 17%
- growth at 1000 µM [11]: 12%
- growth at 100 µM [12]: 55%
- growth at 1000 µM [13]: -36%
- growth at 1000 µM [14]: 27%
- growth at 1 µM [15]: 106%
- growth at 100 µM [16]: 17%
- growth at 1 µM [17]: 89%
- growth at 0.1 µM [18]: 95%
- growth at 0.1 µM [19]: 85%
- growth at 1000 µM [20]: -56%
- growth at 1000 µM [21]: 50%
- growth at 0.1 µM [22]: 97%
- growth at 1000 µM [23]: 55%
- growth at 1 µM [24]: 95%
- growth at 1000 µM [25]: 24%
- growth at 1000 µM [26]: 25%
- GI50 ([27]; read-out: GI50): 9.09 µM
- LC50 ([27]; read-out: LC50): 16.4 µM
- TGI ([27]; read-out: TGI): > 100 µM
- GI50 ([27]; read-out: pGI50 (converted)): 9.12 µM
- LC50 ([27]; read-out: pLC50 (converted)): > 100 µM
- TGI ([27]; read-out: pTGI (converted)): > 100 µM
- GI50 ([28]; read-out: GI50): 12.3 µM
- CC50 [28, 41]: > 100 µM
- TGI ([28]; read-out: TGI): > 100 µM
- GI50 ([28]; read-out: pGI50 (converted)): 12.3 µM
- CC50 [28, 42]: > 100 µM
- TGI ([28]; read-out: pTGI (converted)): > 100 µM
- growth at 1 µM [29]: 86%
- growth at 100 µM [30]: 56%
- growth at 1000 µM [31]: 23%
- GI50 ([32]; read-out: GI50): 1270 nM
- CC50 [32, 41]: 9.43 µM
- TGI ([32]; read-out: TGI): 3.46 µM
- GI50 ([32]; read-out: pGI50 (converted)): 1260 nM
- CC50 [32, 42]: 9.33 µM
- TGI ([32]; read-out: pTGI (converted)): 3.47 µM
- growth at 1 µM [33]: 95%
- growth at 0.1 µM [34]: 99%
- growth at 1 µM [36]: 98%
- growth at 0.1 µM [37]: 95%
- growth at 100 µM [38]: -48%
- growth at 100 µM [39]: 26%
- growth at 100 µM [40]: -2%
